Data published in PubChem BioAssay AID256 (DTP/NCI, 2004).
Inconclusive results and toxic doses are left out. How the source made its calls: active means survival T/C of 150% or more; inactive means T/C below 125% in these data.

System: CD2F1 mice, L1210 leukemia ip, survival T/C
Assay: NCI In Vivo Anticancer Drug Screen. Data for tumor model L1210 Leukemia (intraperitoneal) in CD2F1 (CDF1) mice
Details: higher = longer survival
In short: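 Vehicle-treated tumor-bearing mice served as controls (C) for compound-treated mice (T). Reported figure is T divided by C.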

[1] = endpoint: mean survival time, dose: 100.0 mg/kg/injection, schedule: Q01DX009 (ip), vehicle: saline with Tween-80
[2] = endpoint: mean survival time, dose: 200.0 mg/kg/injection, schedule: Q01DX009 (ip), vehicle: saline with Tween-80
[3] = endpoint: mean survival time, dose: 100.0 mg/kg/injection, schedule: Q04DX003 (ip), vehicle: saline with Tween-80
[4] = endpoint: mean survival time, dose: 200.0 mg/kg/injection, schedule: Q04DX003 (ip), vehicle: saline with Tween-80
[5] = endpoint: mean survival time, dose: 400.0 mg/kg/injection, schedule: Q01DX009 (ip), vehicle: saline with Tween-80
[6] = endpoint: mean survival time, dose: 400.0 mg/kg/injection, schedule: Q04DX003 (ip), vehicle: saline with Tween-80
[7] = endpoint: mean survival time, dose: 100.0 mg/kg/injection, schedule: Q01DX001 (ip), vehicle: saline with Tween-80
[8] = endpoint: mean survival time, dose: 200.0 mg/kg/injection, schedule: Q01DX001 (ip), vehicle: saline with Tween-80
[9] = endpoint: mean survival time, dose: 400.0 mg/kg/injection, schedule: Q01DX001 (ip), vehicle: saline with Tween-80
[10] = endpoint: mean survival time, dose: 100.0 mg/kg/injection, schedule: Q04DX003 (ip), vehicle: other
[11] = endpoint: mean survival time, dose: 200.0 mg/kg/injection, schedule: Q04DX003 (ip), vehicle: other

Measured: T/C

O=C(CCOP(=O)(N(CCCl)CCCl)N1CC1)OCc1ccccc1 (stereo unspecified)
inactive: endpoint: mean survival time, dose: 25.0 mg/kg/injection, schedule: Q01DX009 (ip), vehicle: Klucel (hydroxypropylcellulose) (HPC) 97 % of control | endpoint: mean survival time, dose: 50.0 mg/kg/injection, schedule: Q01DX009 (ip), vehicle: Klucel (hydroxypropylcellulose) (HPC) 94 % of control | endpoint: mean survival time, dose: 100.0 mg/kg/injection, schedule: Q01DX009 (ip), vehicle: Klucel (hydroxypropylcellulose) (HPC) 97 % of control | endpoint: mean survival time, dose: 125.0 mg/kg/injection, schedule: Q01DX001 (ip), vehicle: Klucel (hydroxypropylcellulose) (HPC) 98 % of control | endpoint: mean survival time, dose: 200.0 mg/kg/injection, schedule: Q01DX009 (ip), vehicle: Klucel (hydroxypropylcellulose) (HPC) 97 % of control | endpoint: mean survival time, dose: 250.0 mg/kg/injection, schedule: Q01DX001 (ip), vehicle: Klucel (hydroxypropylcellulose) (HPC) 107 % of control | endpoint: mean survival time, dose: 400.0 mg/kg/injection, schedule: Q01DX009 (ip), vehicle: Klucel (hydroxypropylcellulose) (HPC) 107 % of control | endpoint: mean survival time, dose: 500.0 mg/kg/injection, schedule: Q01DX001 (ip), vehicle: Klucel (hydroxypropylcellulose) (HPC) 103 % of control | endpoint: mean survival time, dose: 1000.0 mg/kg/injection, schedule: Q01DX001 (ip), vehicle: Klucel (hydroxypropylcellulose) (HPC) 95 % of control

O/N=C1\C=C2C/C(=N/O)C=C2C1
inactive: endpoint: mean survival time, dose: 50.0 mg/kg/injection, schedule: Q01DX009 (ip), vehicle: saline with Tween-80 100 % of control | [1] 96 % of control | [2] 96 % of control

CC(=O)C12CC3CC1C2C3
inactive: endpoint: mean survival time, dose: 75.0 mg/kg/injection, schedule: Q01DX001 (ip), vehicle: saline 101 % of control | endpoint: mean survival time, dose: 150.0 mg/kg/injection, schedule: Q01DX001 (ip), vehicle: saline 98 % of control | endpoint: mean survival time, dose: 300.0 mg/kg/injection, schedule: Q01DX001 (ip), vehicle: saline 93 % of control

CC(SCc1ccccc1)C(NC(=O)c1ccccc1)C(=O)O (stereo unspecified)
inactive: [1] 93 % of control | [3] 98 % of control | [2] 90 % of control | [4] 98 % of control | [5] 93 % of control | [6] 101 % of control

NC(Cc1c[nH]c2ccccc12)C(=O)O (stereo unspecified)
inactive: endpoint: mean survival time, dose: 50.0 mg/kg/injection, schedule: Q01DX001 (ip), vehicle: saline with Tween-80 98 % of control | [7] 98 % of control | [8] 101 % of control

Cc1cc2c(cc1C)N(C(=O)CN1CCCCC1)CC(=O)N2
inactive: endpoint: mean survival time, dose: 75.0 mg/kg/injection, schedule: Q04DX003 (ip), vehicle: saline 94 % of control | endpoint: mean survival time, dose: 150.0 mg/kg/injection, schedule: Q04DX003 (ip), vehicle: saline 89 % of control

Brc1ccc2c(c1)Cc1cc(N=Cc3ccc4c(c3)OCO4)ccc1-2
inactive: endpoint: mean survival time, dose: 100.0 mg/kg/injection, schedule: Q01DX001 (ip), vehicle: carboxymethylcellulose (CMC) 97 % of control | endpoint: mean survival time, dose: 200.0 mg/kg/injection, schedule: Q01DX001 (ip), vehicle: carboxymethylcellulose (CMC) 94 % of control | endpoint: mean survival time, dose: 400.0 mg/kg/injection, schedule: Q01DX001 (ip), vehicle: carboxymethylcellulose (CMC) 100 % of control

CCC1CCCCN1C (stereo unspecified)
inactive: [3] 90 % of control

C=C1C(=O)O[C@@H]2C[C@@H](C)[C@@H]3[C@@H](OC4OC(COC(C)=O)C(O)C(O)C4O)CC(=O)[C@@]3(C)C[C@H]12 (stereo partly specified)
inactive: endpoint: mean survival time, dose: 35.0 mg/kg/injection, schedule: Q01DX009 (ip), vehicle: saline 108 % of control | endpoint: mean survival time, dose: 50.0 mg/kg/injection, schedule: Q01DX009 (ip), vehicle: saline 95 % of control | endpoint: mean survival time, dose: 75.0 mg/kg/injection, schedule: Q01DX009 (ip), vehicle: saline 102 % of control

CCOC(=O)C(Cc1ccccc1)C1=NC(C)(C)CC(C)O1 (stereo unspecified)
inactive: endpoint: mean survival time, dose: 100.0 mg/kg/injection, schedule: Q04DX003 (ip), vehicle: acetone 102 % of control | endpoint: mean survival time, dose: 200.0 mg/kg/injection, schedule: Q04DX003 (ip), vehicle: acetone 109 % of control | endpoint: mean survival time, dose: 400.0 mg/kg/injection, schedule: Q04DX003 (ip), vehicle: acetone 97 % of control

COc1ccc(CCOS(=O)(=O)c2ccc(C)cc2)cc1
inactive: [7] 103 % of control | [8] 101 % of control | [9] 101 % of control

c1ccc2ncccc2c1
inactive: endpoint: mean survival time, dose: 100.0 mg/kg/injection, schedule: Q01DX009 (ip), vehicle: other 103 % of control | endpoint: mean survival time, dose: 200.0 mg/kg/injection, schedule: Q01DX009 (ip), vehicle: other 101 % of control

O=C(O)CC(Sc1ccccc1)c1ccccc1 (stereo unspecified)
inactive: [10] 97 % of control | [11] 101 % of control

CCOC(=O)NC1CCC1NC(=O)OCC (stereo unspecified)
inactive: [3] 95 % of control | [4] 106 % of control | [6] 107 % of control

[O-][N+](=C(c1ccccc1)c1ccccc1)c1ccccc1
inactive: endpoint: mean survival time, dose: 75.0 mg/kg/injection, schedule: Q01DX009 (ip), vehicle: saline with Tween-80 96 % of control | endpoint: mean survival time, dose: 150.0 mg/kg/injection, schedule: Q01DX009 (ip), vehicle: saline with Tween-80 94 % of control | endpoint: mean survival time, dose: 300.0 mg/kg/injection, schedule: Q01DX009 (ip), vehicle: saline with Tween-80 94 % of control

CC1(C)COC(c2ccccc2)OC1
inactive: [7] 95 % of control | [8] 103 % of control | [9] 101 % of control

CC(=O)Nc1ccc(-c2c(N)ncc3ccccc23)cc1
inactive: endpoint: mean survival time, dose: 50.0 mg/kg/injection, schedule: Q04DX003 (ip), vehicle: other 94 % of control | [10] 94 % of control | [11] 96 % of control | endpoint: mean survival time, dose: 400.0 mg/kg/injection, schedule: Q04DX003 (ip), vehicle: other 100 % of control

CCCC1(c2ccccc2)C(=O)NCNC1=O
inactive: endpoint: median survival time, dose: 25.0 mg/kg/injection, schedule: Q01DX005 (ip), vehicle: Klucel (hydroxypropylcellulose) (HPC) 101 % of control | endpoint: median survival time, dose: 50.0 mg/kg/injection, schedule: Q01DX005 (ip), vehicle: Klucel (hydroxypropylcellulose) (HPC) 97 % of control | endpoint: median survival time, dose: 100.0 mg/kg/injection, schedule: Q01DX005 (ip), vehicle: Klucel (hydroxypropylcellulose) (HPC) 97 % of control | endpoint: median survival time, dose: 200.0 mg/kg/injection, schedule: Q01DX005 (ip), vehicle: Klucel (hydroxypropylcellulose) (HPC) 94 % of control | endpoint: median survival time, dose: 400.0 mg/kg/injection, schedule: Q01DX005 (ip), vehicle: Klucel (hydroxypropylcellulose) (HPC) 104 % of control

CCCCCCCCCCCCOc1ccc(Sc2ccc(OCCCCCCCCCCCC)cc2C)c(C)c1
inactive: [7] 86 % of control

O=C(NCCSC(=O)Nc1ccccc1)Nc1ccccc1
inactive: [1] 95 % of control | [2] 94 % of control | [5] 94 % of control

O=C(O)C(CCc1ccccc1)N1CCOCC1 (stereo unspecified)
inactive: endpoint: mean survival time, dose: 100.0 mg/kg/injection, schedule: Q04DX003 (ip), vehicle: saline 98 % of control | endpoint: mean survival time, dose: 200.0 mg/kg/injection, schedule: Q04DX003 (ip), vehicle: saline 98 % of control | endpoint: mean survival time, dose: 400.0 mg/kg/injection, schedule: Q04DX003 (ip), vehicle: saline 101 % of control

CCCCC1=C(P(=O)(OCC)OCC)C(F)(F)C(F)(F)C1(F)F
inactive: endpoint: mean survival time, dose: 75.0 mg/kg/injection, schedule: Q01DX001 (ip), vehicle: other 98 % of control | endpoint: mean survival time, dose: 150.0 mg/kg/injection, schedule: Q01DX001 (ip), vehicle: other 86 % of control | endpoint: mean survival time, dose: 300.0 mg/kg/injection, schedule: Q01DX001 (ip), vehicle: other 100 % of control

O=[N+]([O-])c1ccc2c([N+](=O)[O-])cc(O)cc2c1
inactive: [7] 95 % of control | [1] 96 % of control | [8] 105 % of control | [2] 96 % of control | [9] 100 % of control | [5] 98 % of control

CC(C)C(O)C(C)(C)c1nc2ccccc2[nH]1 (stereo unspecified)
inactive: [7] 100 % of control | [8] 94 % of control

CC(C)(C)C1CC=CCC1 (stereo unspecified)
inactive: [3] 98 % of control | [4] 98 % of control

ClCC(Cl)CN(Cc1ccccc1)Cc1ccccc1 (stereo unspecified)
inactive: [7] 102 % of control | [1] 102 % of control | [8] 93 % of control | [2] 104 % of control | [9] 98 % of control
